According to US20130190248A1, “S[…] ANALOGS” (AGENSYS, INC., priority 2011, published 2013):
Where a SMILES comes first, the peptide text is derived from it. [ ]: non-standard residue; d: D form. The star is where a group is joined. Dolaproine = CO[C@@H]([C@@H]1CCCN1)[C@@H](C)C(=O)O; Dil = CC[C@H](C)[C@H](NC)[C@@H](CC(=O)O)OC; NH(2-(2-pyridyl)ethyl) = c1ccc(CCN*)nc1; NMeV = CN[C@H](C(=O)O)C(C)C

System: SW780 human bladder cancer cells
Assay: In vivo efficacy in subcutaneously established human bladder cancer cell line SW780 implanted in ICR SCID mice
Conditions: QW for 3 weeks, SW780 xenograft, male ICR SCID mice
Experimental: Determination of In Vivo Efficacy of Test Compounds: Efficacy Evaluation in Subcutaneously Established Human Bladder Cancer Cell Line SW780 Implanted in ICR SCID Mice
For animal in vivo studies, the test compounds were diluted with 20 mM Histidine, 5% Sucrose, pH 6 with 15% DMSO. Male ICR SCID mice (Taconic Farm, Hudson, N.Y.) were housed in standard rodent micro isolator cages. Environment controls for the animal rooms were set to maintain a temperature between 68-75° F., a relative humidity between 30% to 70%, and an approximate 12 h light/12 h dark cycle. Food and water was provided ad libitum. After 72 h of acclimatization, the mice were implanted with SW780 human bladder cancer cells (2×10^6 cells/mouse), suspended in 50% complete cultrex (Trevigen, Inc.) mixed with 1×PBS (Gibco), and the tumor growth rate was monitored. When the average tumor volume reached ˜200 mm^3, tumors were size-matched and mice were randomized to treatment groups (n=8 or 10). The tumor-bearing mice were treated i.v. with Vehicle or test compound at 2 or 4 mg/kg (mpk) on a QW dosing schedule for 3 weeks. Tumor volume was assessed twice weekly using caliper measurement.

Row | SMILES | effect on tumor growth (mean tumor volume versus days of treatment) (2 mg/kg i.v.) | effect on tumor growth (mean tumor volume versus days of treatment) (4 mg/kg i.v.)
1 | CC[C@H](C)[C@@H]([C@@H](CC(=O)N1CCC[C@H]1[C@H](OC)[C@@H](C)C(=O)NCCc1ccccn1)OC)N(C)C(=O)[C@@H](NC(=O)[C@@H](NC)C(C)C)C(C)C [Example 1, (S)—N-((3R,4S,5S)-3-Methoxy-1-((S)-2-((1R,2R)-1-methoxy-2-methyl-3-oxo-3-((2-(pyridin-2-yl)ethyl)amino)propyl)pyrrolidin-1-yl)-5-methyl-1-oxoheptan-4-yl)-N,3-dimethyl-2-((S)-3-methyl-2-(methylamino)butanamido)butanamide] (H-[NMeV]V[Dil][Dolaproine]-{NH(2-(2-pyridyl)ethyl)}) | tumor stasis | tumor stasis
2 | CC[C@H](C)[C@@H]([C@@H](CC(=O)N1CCC[C@H]1[C@H](OC)[C@@H](C)C(=O)NCCc1ccc(N)cc1)OC)N(C)C(=O)[C@@H](NC(=O)[C@H](C(C)C)N(C)C)C(C)C [Example 22, (S)—N-((3R,4S,5S)-1-((S)-2-((1R,2R)-3-((4-aminophenethyl)amino)-1-methoxy-2-methyl-3-oxopropyl)pyrrolidin-1-yl)-3-methoxy-5-methyl-1-oxoheptan-4-yl)-2-((S)-2-(dimethylamino)-3-methylbutanamido)-N,3-dimethylbutanamide] | tumor stasis | 
